US7405240B2, “Substituted cyclopentanes or cyclopentanones as therapeutic agents” (Allergan, Inc., priority 2006, dated 2008)

Assays:
[1] = test system: laser-induced hypertensive monkeys; experiment: Intraocular pressure in laser-induced hypertensive monkeys; format: in vivo, monkey; settings: 0.1%, one single day dose; for change in vivo at 0.1 %: Primates, topical, read-out: maximum IOP decrease from baseline
Experimental: (§1) (Z)-7-[(1R,2S,3R,5R)-5-Chloro-2-(3,5-dichloro-phenoxymethyl)-3-hydroxy-cyclopentyl]-hept-5-enoic acid (15b) was tested at multiple concentrations in normotensive dogs, dosing once daily for 5 days. At 0.05%, the maximum IOP decrease from baseline was 4.3 mmHg (30%) at 6 h; the maximum OSH score was 0.6 at 6 h. […] This compound was also tested in laser-induced hypertensive monkeys, using one single day dose. At 0.1%, the maximum IOP decrease from baseline was 6 mmHg (19%) at 6 h.
(§2) (Z)-7-[(1R,2S,3R,5R)-5-Chloro-2-(3,5-dichloro-phenoxymethyl)-3-hydroxy-cyclopentyl]-hept-5-enoic acid isopropyl ester (42b) was tested in normotensive dogs at 0.05%, dosing once daily for 5 days. The maximum intraocular pressure (IOP) decrease from baseline was 3 mmHg (19%) at 6 h; the maximum ocular surface hyperemia (OSH) score was 0.6 at 74 h. This compound was also tested in laser-induced hypertensive monkeys, using one single day dose. At 0.01%, the maximum IOP decrease from baseline was 6 mmHg (16%) at 6 h.

[2] = target: T1, hEP2 (Homo sapiens, UniProt P43116); experiment: cAMP assay, hEP2; format: cell-based
T1 sequence (P43116 whole entry): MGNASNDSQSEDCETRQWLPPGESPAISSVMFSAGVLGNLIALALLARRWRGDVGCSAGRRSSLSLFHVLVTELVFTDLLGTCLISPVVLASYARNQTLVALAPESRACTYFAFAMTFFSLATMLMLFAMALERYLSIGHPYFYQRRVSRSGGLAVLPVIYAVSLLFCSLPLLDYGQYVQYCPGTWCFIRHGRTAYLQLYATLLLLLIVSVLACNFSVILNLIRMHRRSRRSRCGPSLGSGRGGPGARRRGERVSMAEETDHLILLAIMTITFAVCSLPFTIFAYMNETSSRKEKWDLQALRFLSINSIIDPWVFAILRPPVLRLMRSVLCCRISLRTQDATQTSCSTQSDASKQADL

[3] = target: T1, hEP2; experiment: Competition binding, [3H]PGE2, human EP2 receptors; design: expressed in transfected cells; host or cells: HEK 293; settings: [3H]PGE2, HEK 293 cells stably expressing human EP2; read-out: hEP2 Ki
Method in brief: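 HEK 293 membranes or cells stably expressing human EP2 were incubated with 10 nM [3H]PGE2 and test compound in HBSS/20 mM Hepes pH 7.3, 60 min at 23° C, then filtered. Non-specific binding defined with 10 μM PGE2; IC50 from single-site fit converted to Ki using KD 40 nM.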

[4] = target: T2, hEP4 (Homo sapiens, UniProt P35408); experiment: FLIPR calcium signal, hEP4; format: cell-based; design: expressed in transfected cells; host or cells: HEK-293(EBNA); settings: HEK-293(EBNA) cells expressing hEP4/Gqs5
T2 sequence (P35408 whole entry): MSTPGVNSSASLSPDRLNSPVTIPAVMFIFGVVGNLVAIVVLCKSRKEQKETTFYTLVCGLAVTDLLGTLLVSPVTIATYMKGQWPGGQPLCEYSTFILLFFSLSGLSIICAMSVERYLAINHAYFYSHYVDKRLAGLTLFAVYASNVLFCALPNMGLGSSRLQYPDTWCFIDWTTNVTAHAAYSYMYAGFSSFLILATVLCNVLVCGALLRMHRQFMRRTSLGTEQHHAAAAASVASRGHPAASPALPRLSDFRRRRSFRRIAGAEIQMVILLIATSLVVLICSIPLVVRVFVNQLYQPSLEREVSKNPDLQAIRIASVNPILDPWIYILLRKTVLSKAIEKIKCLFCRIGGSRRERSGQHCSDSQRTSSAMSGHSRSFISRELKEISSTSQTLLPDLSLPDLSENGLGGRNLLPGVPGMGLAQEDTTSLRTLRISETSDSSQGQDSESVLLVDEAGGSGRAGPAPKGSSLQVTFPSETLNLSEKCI
Method in brief: (§3)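 HEK-293(EBNA) cells stably expressing a single human prostaglandin receptor (hDP/Gqs5 chimera for DP), Fluo-4 AM loaded, in HBSS-HEPES pH 7.4 at 37 °C. Peak calcium fluorescence scaled to buffer and receptor standard agonist; 10^−5 M single-point or 10^−5–10^−11 M curves, duplicates, n≥3.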

[5] = test system: normotensive dogs; experiment: Intraocular pressure and ocular surface hyperemia in normotensive dogs; format: in vivo, dog; design: maximum OSH score: scale not given here; settings: 0.1%, once daily for 5 days; for change in vivo at 0.1 %: Canis lupus familiaris, topical, 120 h, read-out: maximum IOP decrease from baseline
Experimental: as §1, §2

[6] = target: T1, hEP2; experiment: FLIPR calcium signal, hEP2; format: cell-based; design: expressed in transfected cells; host or cells: HEK-293(EBNA); settings: HEK-293(EBNA) cells expressing hEP2/Gqs5
Method in brief: as §3

[7] = target: T2, hEP4; experiment: Radioligand binding, EP4 receptor; design: expressed in transfected cells; host or cells: HEK-293; settings: [3H]PGE2, HEK-293 cells expressing EP4
Method in brief: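 HEK-293 membranes stably expressing human EP4, in TME buffer pH 7.4; competition vs 5 nM [3H]-PGE2, 60 min at 25 °C, stopped by GF/B filtration. Non-specific binding defined with 10^−5 M unlabeled PGE2; duplicates, at least three experiments.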

| Compound | maximum IOP decrease from baseline [1] [mmHg] | time of maximum IOP decrease [1] [h] | change in vivo at 0.1 % [1] [%] | EC50 [2] [µM] | Ki [3] [µM] | EC50 [4] [µM] | maximum IOP decrease from baseline [5] [mmHg] | maximum OSH score [5] | time of maximum IOP decrease [5] [h] | time of maximum OSH score [5] [h] | change in vivo at 0.1 % [5] [%] | EC50 [6] [µM] | Ki [7] [µM] |
| --- | --- | --- | --- | --- | --- | --- | --- | --- | --- | --- | --- | --- | --- |
| Cc1cc(C)cc(OC[C@@H]2[C@@H](C/C=C\CCCC(=O)O)[C@H](Cl)C[C@H]2O)c1 [Example 36, (Z)-7-[(1R,2S,3R,5R)-5-Chloro-2-(3,5-dimethyl-phenoxymethyl)-3-hydroxy-cyclopentyl]-hept-5-enoic acid] | 9 | 2 | 25 | 0.0014 | 0.031 | 7.72 | 6.5 | 1.2 | 52 | 28 | 46 | 0.027 | 1.09 |
| O=C(O)CCC/C=C\C[C@@H]1[C@@H](COc2cc(C(F)(F)F)cc(C(F)(F)F)c2)[C@H](O)C[C@H]1Cl [Example 15, (Z)-7-[(1R,2S,3R,5R)-2-(3,5-Bis-trifluoromethyl-phenoxymethyl)-5-chloro-3-hydroxy-cyclopentyl]-hept-5-enoic acid] | 11 | 6 | 30 | 0.008 | 0.008 | 13 | 4.8 | 0.9 | 100 | 52 | 35 | 0.011 | 2.29 |
| O=C(O)CCC/C=C\C[C@@H]1[C@@H](COc2cccc(C(F)(F)F)c2)[C@H](O)C[C@H]1Cl [Example 24, (Z)-7-[(1R,2S,3R,5R)-5-Chloro-3-hydroxy-2-(3-trifluoromethyl-phenoxymethyl)-cyclopentyl]-hept-5-enoic acid] | 10.8 | 6 | 28 | 0.0024 | 0.044 | 9.87 | 2.5 | 0.5 | 78 | 6 | 16 | 0.066 | 1.42 |
| Cc1cc(C)cc(OC[C@@H]2[C@@H](C/C=C\CCCC(=O)OC(C)C)[C@H](Cl)C[C@H]2O)c1 [Example 42u, (Z)-7-[(1R,2S,3R,5R)-5-Chloro-2-(3,5-dimethyl-phenoxymethyl)-3-hydroxy-cyclopentyl]-hept-5-enoic acid isopropyl ester] | 8 | 6 | 23 |  |  |  | 4.3 | 0.9 | 30 | 74 | 30 |  |  |
| O=C(O)CCC/C=C\C[C@@H]1[C@@H](COc2ccc(CO)cc2)[C@H](O)C[C@H]1Cl [Example 43, (Z)-7-[(1R,2S,3R,5R)-5-Chloro-3-hydroxy-2-(4-hydroxymethyl-phenoxymethyl)-cyclopentyl]-hept-5-enoic acid] | 2 | 6 | 6 | 0.005 | 0.993 |  | 2.8 | 0.6 | 98 | 98 | 20 | 0.044 | > 10 |
| O=C(O)CCC/C=C\C[C@@H]1[C@@H](COc2cccc3ccccc23)[C@H](O)C[C@H]1Cl [Example 19, (Z)-7-[(1R,2S,3R,5R)-5-Chloro-3-hydroxy-2-(naphthalen-1-yloxymethyl)-cyclopentyl]-hept-5-enoic acid] | 11.8 | 6 | 31 | 0.002 | 0.017 | 0.115 | 5.8 | 0.8 | 6 | 54 | 41 | 0.003 | 0.315 |
